Reference: patent US6437185B1, “Quaternary ammonium compounds and process for preparing and using same” (Finetex, Inc., priority 1999, dated 2002)

What was measured:
[1] = test system: EpiDerm (Skin model); details: groupings used to assign irritancy from ET-50; cited from earlier work
[2] = test system: Epiocular samples (Ocular Tissue model); details: literature grouping, Kay and Calandra 1962; cited from earlier work
[3] = test system: Epiocular samples (Ocular Tissue model); experiment: In-vitro Mat Tek ocular irritation protocol (Epiocular, Ocular Tissue model); format: cell-based; details: for Ocular Results/Classification: tested at 3.0% active
Protocol: Both products were tested at 3.0% active for dermal and ocular irritation by in-vitro Mat Tek Protocols (Skin model and Ocular Tissue model).
Construction of a Dose Response Curve: The extractant solution within each well was pipetted up and down several times to insure that each is well mixed. 200 microliters of each of the mixed extraction solutions was then pipetted into separate wells of a 96 well microtiter plate. A Dynatech MR 4000 Automatic Microplate Reader was used to determine the optical density of each extract at 570 nm. With the absorbance of a negative control defined as 100%, the percent absorbencies of the articles were determined (% viability=100×(OD [article]/OD [negative control]). The calculated percentages directly correlate with the cell metabolism in the Epiocular samples.
Using a semi-log scale, the percent viability (liner “y” axis) was plotted versus the dosing time (log “x” axis). By interpolation, the time at which the viability has dropped to 50% was determined.

Row | Compound | Expected In vivo Irritancy (example substances of the EpiDerm ET-50 groups) [1] | Irritancy Classification (example substances of the Draize score / Epiocular ET-50 groups) [2] | Mildness in toxicology studies (in words) ([3]; 3.0% active, dermal and ocular irritation, in-vitro Mat Tek Protocols) | Ocular Results/Classification ([3]; first table) | Ocular Results/Classification ([3]; second table with the same title)
1 | O=[N+]([O-])O [Conc. Nitric Acid, Nitric Acid] | Severe, probably corrosive (<0.5) | – | – | – | –
2 | CCCCCCCCCCCCOS(=O)(=O)[O-].[Na+] [2% Sodium Dodecyl Sulfate, Sodium Dodecyl Sulfate] | Moderate (0.5-4) | Mild (<20.5-9.67) | – | – | –
3 | N′,N″,N′″-Triethyl, N′,N′,N′″,N′″-Tetramethyl, N″-[(Trioxypropyl)-ω-hydroxycetyl], dipropylene triammonium triethosulfate [FINQUAT ® CT-P] | – | – | milder than FINQUAT® CT | Non-Irritancy (as in Peg 75 Lanolin) | Non-Irritancy (as in Peg 75 Lanolin)
